Measured values published in patent publication US20210254101A1, “METHODS FOR TREATING SPINAL CORD INJURY” (THE CHILDREN'S MEDICAL CENTER CORPORATION, priority 2018, published 2021).

What was measured:
[1] = system: mice with a complete T8 spinal cord transection; assay: BMS open field locomotion after complete T8 spinal cord transection; type: in vivo, mouse; conditions: complete T8 transection; same treatment as in staggered lesion; FIG. 7E
Text: CLP290's effects could result from reactivating the spared dormant descending connections in the spinal cord after SCI. However, it could also act directly on the lumbar spinal cord, independently of descending inputs. […] Therefore, different from this transient effector that acts directly on the lumbar spinal cord, the effects of CLP290 on functional improvement are dependent on spared connections.
The procedure of T8 full transection was similar to that described elsewhere (Courtine et al., 2009). Briefly, a midline incision was made over the thoracic vertebrae, followed by a T8 laminectomy. The complete T8 transection was then performed carefully using both a scalpel and micro-scissors. The muscle layers were then sutured and the skin was secured with wound clips.
Behavioral Experiments. Motor function was evaluated with a locomotor open field rating scale on the Basso Mouse Scale (BMS). For transient pharmacological treatments, ten to fifteen minutes (van den Brand et al., 2012) prior to behavioral tests (grounding walking, all of which were performed individually), mice received systematic administration (i.p.) of the neural modulators listed above. It is important to note that with a single intraperitoneal injection, plasma CNO levels peak at 15 min and become very low by 2 h after injection (Guettier et al., 2009). For chronic pharmacological treatments, 24 hours prior to behavioral tests, mice received systematic administration of the compounds listed above. All behavioral tests were completed within 1-3 hours. For detailed hindlimb kinematic analysis, mice from different groups were placed in the MotoRater (TSE Systems, (Zorner et al., 2010)), and all kinematic analysis was performed based on data collected by the MotoRater.

c-Fos = c-Fos immunoreactivity in spinal cord segments between T7 and T10 after 1 hour walking; type: in vivo, mouse
Text: In mature neurons, GABA and glycine are inhibitory because they open chloride channels, which allow chloride ion influx leading to hyperpolarization. In contrast, during development, the elevated intracellular chloride levels render GABAA- and glycine-mediated currents depolarizing and generally excitatory. During early postnatal life, KCC2 upregulation in postnatal neurons is crucial for reducing intracellular chloride concentrations, transforming excitation into inhibition (Ben-Ari et al., 2012; Kaila et al., 2014). Thus, injury-induced KCC2 down-regulation (Boulenguez et al., 2010; Cote et al., 2014) would be expected to restore an immature state in which GABA and glycine receptors can depolarize neurons. In this scenario, KCC2 activation in spinal inhibitory neurons would transform local circuits in the relay zone towards a more physiological state, which is more receptive to descending inputs. To examine this, c-Fos immunoreactivity was used as a proxy of neuronal activity in the spinal cord segments between T7 and T10 at 8 weeks after injury, and after walking on a treadmill for 1 hour. In each group, the majority of c-Fos-positive cells in these spinal segments were also positively stained with NeuN, a neuronal marker (FIG. 11A, 11B). In injured mice without treatment, the c-Fos-positive neurons were concentrated in the dorsal horn of the spinal cord (FIG. 5A-5C), perhaps reflecting hypersensitivity to peripheral sensory inputs in these injured mice. […] This KCC2-transformed distribution pattern is similar to what was detected in intact mice, in response to walking (FIG. 5A-5C).
Immunohistochemistry and Imaging. The paraformaldehyde (PFA) fixed tissues were cryo-protected with 30% sucrose and processed using cryostat (section thickness 40 μm for spinal cord). Sections were treated with a blocking solution containing 10% normal donkey serum with 0.5% Triton-100 for 2 hours at room temperature before staining. The primary antibodies (4 □, overnight) used were: rabbit anti-GFAP [DAKO (Z0334), 1:600]; rabbit anti-5-HT [Immunostar (20080), 1:5,000]; chicken anti-GFP [Abcam (ab13970), 1:400]; rabbit anti-RFP [Abcam (ab34771), 1:400]; rabbit anti-PKCγ [Santa Cruz (sc211), 1:100]; rat anti-HA [Sigma (11867423001), 1:200]; rabbit anti-c-Fos [Cell signaling (2250s), 1:100]; and mouse anti-NeuN [Millipore (MAB377), 1:400]. Secondary antibodies (room temperature, 2 h) included: Alexa Fluor 488-conjugated donkey anti chicken and rabbit; and Alexa Fluor 594-conjugated donkey anti rabbit (all from Invitrogen). c-Fos immunoreactivity of spinal neurons was determined as previously described (Courtine et al., 2009), after 1-hour of continuous quadrupedal free walking (intact), stepping (CLP290 or AAV-KCC2 treated mice) or dragging (vehicle or AAV-GFP treated mice). The mice were returned to their cages, and were then anesthetized and sacrificed by intracardial perfusion of 4% PFA (wt/vol) in phosphate buffered saline (PBS) about 2 hours later.

[2] = system: mice with staggered lesions; assay: Cortical stimulation with EMG responses recorded in the TA muscle; type: in vivo, mouse; conditions: injured mice, compared to controls; FIG. 5D-5F
Protocol: To test directly if the treated spinal cord could more efficiently relay descending inputs to the lumbar spinal cord, cortical stimulation was performed and recorded EMG responses in the TA muscle (FIG. 5D). […] Thus, KCC2 treatment facilitates the transmission of descending inputs from the brain to the lumbar spinal cord.
For epidural stimulation and EMG recording, a customized head plate was secured over the skull, and a monopolar stimulation electrode (SSM33A05, World Precision Instruments, Inc.) was positioned epidurally over the representative hindlimb area of left motor cortex. A train of electrical stimuli (0.2 ms biphasic pulse, 100 ms pulse train, 20 Hz, 0.5-1.5 mA) was generated by pulse generator and isolator (Master 9 and Iso-Flex, A.M.P.I.), and delivered during quadrupedal standing in fully awake condition. Testing was performed without and with electrochemical stimulations. Peak-to-peak amplitude and latency of evoked responses were computed from EMG recordings of the right TA muscle.

[3] = Side effects of compounds tested in the study; type: in vivo, mouse; conditions: even at high doses; data not shown
neuropathic pain = conditions: animal models; Gagnon et al., 2013; Ferrini et al., 2017; Knabl et al., 2008; cited from earlier work
[4] = T8/9, 8 weeks after injury, chronic treatment, FIG. 5A-5C

O=C1N=C(N2CCCCN2)S/C1=C\c1ccc(F)cc1OC(=O)N1CCCC1 [CLP290, [5-Fluoro-2-[(Z)-(2-hexahydropyridazin-1-yl-4-oxo-thiazol-5-ylidene)methyl]phenyl] pyrrolidine-1-carboxylate]
functional recovery (BMS), chronic treatment [1]: failed to promote any significant functional recovery | c-Fos pattern after withdrawal of treatment (c-Fos; 2 weeks after withdrawal, FIGS. 11C and 11D): returned to what seen without treatment | c-Fos-positive neurons in the dorsal horn (laminae I-V) (c-Fos; [4]): a reduction in the dorsal horn | c-Fos-positive neurons in the intermediate/ventral spinal cord (c-Fos; [4]): a significant increase in the intermediate/ventral spinal cord | amplitude of evoked EMG signals in TA muscle [2]: significantly increased | side effects [3]: negligible side effects even at high doses | effect on neuropathic pain (neuropathic pain): effectively treat neuropathic pain in animal models
